Test results published in ChEMBL document CHEMBL1201862, “PubChem BioAssay data set” (2004).
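How tested: cells in 96-well plates exposed to compound for 48 hours at five concentrations. GI50 marks 50% less growth.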 Active and inactive are the calls of the source. Cut-off read from the data, not from the text of the source: active = GI50 up to about 1.1 µM and inactive = higher.

Experiments:
Experiment in all cases: NCI-60 cell line screen, 48 h
[1] = system: SNB-19
[2] = system: HOP-92
[3] = system: A549
[4] = system: SK-OV-3
[5] = system: KM12
[6] = system: HT-29
[7] = system: SF-268
[8] = system: 786-0
[9] = system: SK-MEL-5
[10] = system: SR
[11] = system: DU-145
[12] = system: OVCAR-4
[13] = system: SW-620
[14] = system: EKVX
[15] = system: SK-MEL-28
[16] = system: HCC 2998
[17] = system: UACC-62
[18] = system: HCT-116
[19] = system: HOP-62
[20] = system: SF-295
[21] = system: HCT-15
[22] = system: IGROV-1
[23] = system: MDA-MB-231
[24] = system: SNB-75
[25] = system: SK-MEL-2
[26] = system: U-251
[27] = system: OVCAR-5
[28] = system: ACHN
[29] = system: A498
[30] = system: SF-539
[31] = system: HL-60
[32] = system: LOX IMVI
[33] = system: Hs-578T
[34] = system: MOLT-4
[35] = system: CAKI-1
[36] = system: UACC-257
[37] = system: M14
[38] = system: T47D
[39] = system: BT-549
[40] = system: K562
[41] = system: NCI-H460
[42] = system: NCI/ADR-RES
[43] = system: MDA-MB-435
[44] = system: TK-10
[45] = system: RXF 393
[46] = system: PC-3
[47] = system: NCI-H226
[48] = system: MCF7
[49] = system: MDA-N
[50] = system: NCI-H522
[51] = system: SN12C
[52] = system: RPMI-8226
[53] = system: COLO 205
[54] = system: OVCAR-3
[55] = system: Malme-3M
[56] = system: OVCAR-8
[57] = system: UO-31
[58] = system: CCRF-CEM
[59] = system: NCI-H23

Structure (SMILES): COc1ccc(C2CCc3c(cnc4nc(N)nc(N)c34)C2)cc1 (centres undefined)
- GI50 [1]: 33.7 µM (inactive)
- GI50 [2]: 2.38 µM (inactive)
- GI50 [3]: 6.43 µM (inactive)
- GI50 [4]: 18.1 µM (inactive)
- GI50 [5]: > 100 µM (inactive)
- GI50 [6]: 4.69 µM (inactive)
- GI50 [7]: 12.9 µM (inactive)
- GI50 [8]: 3.7 µM (inactive)
- GI50 [9]: 11 µM (inactive)
- GI50 [10]: 8 µM (inactive)
- GI50 [11]: 37.4 µM (inactive)
- GI50 [12]: > 100 µM (inactive)
- GI50 [13]: 5.25 µM (inactive)
- GI50 [14]: 73.6 µM (inactive)
- GI50 [15]: 96.4 µM (inactive)
- GI50 [16]: 94.4 µM (inactive)
- GI50 [17]: 3.35 µM (inactive)
- GI50 [18]: 1.73 µM (inactive)
- GI50 [19]: 20.5 µM (inactive)
- GI50 [20]: 7.26 µM (inactive)
- GI50 [21]: 5.15 µM
- GI50 [22]: 1.09 µM (active)
- GI50 [23]: 40.5 µM (inactive)
- GI50 [24]: 10.3 µM (inactive)
- GI50 [25]: 47.4 µM (inactive)
- GI50 [26]: 9.29 µM (inactive)
- GI50 [27]: 13.9 µM (inactive)
- GI50 [28]: 8.28 µM (inactive)
- GI50 [29]: 38.4 µM (inactive)
- GI50 [30]: 26.5 µM (inactive)
- GI50 [31]: 6.28 µM (inactive)
- GI50 [32]: 0.968 µM (active)
- GI50 [33]: 40.8 µM (inactive)
- GI50 [34]: 9.48 µM (inactive)
- GI50 [35]: > 100 µM (inactive)
- GI50 [36]: > 100 µM (inactive)
- GI50 [37]: 1.49 µM (inactive)
- GI50 [38]: 31 µM (inactive)
- GI50 [39]: 44.7 µM (inactive)
- GI50 [40]: 0.83 µM (active)
- GI50 [41]: 4.89 µM (inactive)
- GI50 [42]: > 100 µM (inactive)
- GI50 [43]: 4.53 µM (inactive)
- GI50 [44]: 12.8 µM (inactive)
- GI50 [45]: 16.8 µM (inactive)
- GI50 [46]: > 100 µM (inactive)
- GI50 [47]: > 100 µM (inactive)
- GI50 [48]: 15.8 µM (inactive)
- GI50 [49]: 1.04 µM (active)
- GI50 [50]: 13.6 µM (inactive)
- GI50 [51]: 7.16 µM (inactive)
- GI50 [52]: > 100 µM (inactive)
- GI50 [53]: > 100 µM (inactive)
- GI50 [54]: 62.5 µM (inactive)
- GI50 [55]: 18.9 µM (inactive)
- GI50 [56]: 5.4 µM (inactive)

Structure (SMILES): NS(=O)(=O)c1ccc(/N=N/c2ccc(O)c(O)c2)cc1
- GI50 [1]: 21.8 µM (inactive)
- GI50 [2]: 23.7 µM (inactive)
- GI50 [3]: 20.3 µM (inactive)
- GI50 [4]: 23.3 µM (inactive)
- GI50 [5]: 11.7 µM (inactive)
- GI50 [6]: 27.2 µM (inactive)
- GI50 [7]: 14.5 µM (inactive)
- GI50 [8]: 12.4 µM (inactive)
- GI50 [9]: 6.19 µM (inactive)
- GI50 [10]: 3.05 µM (inactive)
- GI50 [11]: 31 µM (inactive)
- GI50 [12]: 5.98 µM (inactive)
- GI50 [13]: 7.89 µM (inactive)
- GI50 [14]: 46.2 µM (inactive)
- GI50 [15]: 18.1 µM (inactive)
- GI50 [16]: 21.2 µM (inactive)
- GI50 [18]: 9.71 µM (inactive)
- GI50 [19]: 27.4 µM (inactive)
- GI50 [20]: 37 µM (inactive)
- GI50 [21]: 3.18 µM
- GI50 [57]: 11.2 µM (inactive)
- GI50 [22]: 11.7 µM (inactive)
- GI50 [23]: 10.7 µM (inactive)
- GI50 [24]: 25 µM (inactive)
- GI50 [25]: 17.2 µM (inactive)
- GI50 [26]: 12.6 µM (inactive)
- GI50 [27]: 48.6 µM (inactive)
- GI50 [28]: 3.22 µM (inactive)
- GI50 [29]: 24.9 µM (inactive)
- GI50 [30]: 15.9 µM (inactive)
- GI50 [31]: 16.9 µM (inactive)
- GI50 [32]: 15 µM (inactive)
- GI50 [33]: 20 µM (inactive)
- GI50 [34]: 3.79 µM (inactive)
- GI50 [35]: 36.2 µM (inactive)
- GI50 [36]: 24.3 µM (inactive)
- GI50 [37]: 24.5 µM (inactive)
- GI50 [38]: 34.8 µM (inactive)
- GI50 [39]: 2.58 µM (inactive)
- GI50 [40]: 28.7 µM (inactive)
- GI50 [41]: 19.9 µM (inactive)
- GI50 [42]: 16.9 µM (inactive)
- GI50 [58]: 3.56 µM (inactive)
- GI50 [43]: 15.1 µM (inactive)
- GI50 [59]: 17 µM (inactive)
- GI50 [44]: 24.6 µM (inactive)
- GI50 [45]: 17.7 µM (inactive)
- GI50 [46]: 20.6 µM (inactive)
- GI50 [47]: 14.5 µM (inactive)
- GI50 [48]: 27.5 µM (inactive)
- GI50 [49]: 20.6 µM (inactive)
- GI50 [50]: 1.6 µM (inactive)
- GI50 [51]: 10.4 µM (inactive)
- GI50 [52]: 10.7 µM (inactive)
- GI50 [53]: 20.7 µM (inactive)
- GI50 [54]: 24.3 µM (inactive)
- GI50 [55]: 21.3 µM (inactive)
- GI50 [56]: 4.88 µM (inactive)
